# According to ChEMBL document CHEMBL5325507, “A TNF-α blocking peptide that reduces NF-κB and MAPK activity for attenuating inflammation” (Bioorg Med Chem, 2023):
# Calls of active or inactive are those of the source. No cut-off for these calls is given here. Numbered stars: 1 amine (or outer) side, 2 acyl side, 3 side chain; on linkers, the order of the positions; unused ones are H or OH. Bridge positions count the residues as written; N and C are the ends. Square brackets hold non-standard residues; d marks the D form. Peptide text beside a SMILES is read from it. I, II: the chains in the order shown. Actinocin(9to1) = Cc1c2oc3c(C)ccc(C(=O)[*:1])c3nc-2c(C(=O)[*:2])c(N)c1=O; NMeV = CN[C@H](C(=O)O)C(C)C; Sar = CNCC(=O)O
# Key:
# [1] = molecular target: T1, Nuclear factor NF-kappa-B complex (Homo sapiens) (UniProt Q00653+P19838+Q04206); assay: Inhibition of TNF-alpha induced NF-kappaB activation in HEK293-A cells assessed as decrease in phosphorylated IkappaB level at 15 to 120 uM incubated for 15 mins by Western blot analysis; type: cell-based; details: dose 15-120 µM
# T1 sequence (P19838 whole entry, looked up): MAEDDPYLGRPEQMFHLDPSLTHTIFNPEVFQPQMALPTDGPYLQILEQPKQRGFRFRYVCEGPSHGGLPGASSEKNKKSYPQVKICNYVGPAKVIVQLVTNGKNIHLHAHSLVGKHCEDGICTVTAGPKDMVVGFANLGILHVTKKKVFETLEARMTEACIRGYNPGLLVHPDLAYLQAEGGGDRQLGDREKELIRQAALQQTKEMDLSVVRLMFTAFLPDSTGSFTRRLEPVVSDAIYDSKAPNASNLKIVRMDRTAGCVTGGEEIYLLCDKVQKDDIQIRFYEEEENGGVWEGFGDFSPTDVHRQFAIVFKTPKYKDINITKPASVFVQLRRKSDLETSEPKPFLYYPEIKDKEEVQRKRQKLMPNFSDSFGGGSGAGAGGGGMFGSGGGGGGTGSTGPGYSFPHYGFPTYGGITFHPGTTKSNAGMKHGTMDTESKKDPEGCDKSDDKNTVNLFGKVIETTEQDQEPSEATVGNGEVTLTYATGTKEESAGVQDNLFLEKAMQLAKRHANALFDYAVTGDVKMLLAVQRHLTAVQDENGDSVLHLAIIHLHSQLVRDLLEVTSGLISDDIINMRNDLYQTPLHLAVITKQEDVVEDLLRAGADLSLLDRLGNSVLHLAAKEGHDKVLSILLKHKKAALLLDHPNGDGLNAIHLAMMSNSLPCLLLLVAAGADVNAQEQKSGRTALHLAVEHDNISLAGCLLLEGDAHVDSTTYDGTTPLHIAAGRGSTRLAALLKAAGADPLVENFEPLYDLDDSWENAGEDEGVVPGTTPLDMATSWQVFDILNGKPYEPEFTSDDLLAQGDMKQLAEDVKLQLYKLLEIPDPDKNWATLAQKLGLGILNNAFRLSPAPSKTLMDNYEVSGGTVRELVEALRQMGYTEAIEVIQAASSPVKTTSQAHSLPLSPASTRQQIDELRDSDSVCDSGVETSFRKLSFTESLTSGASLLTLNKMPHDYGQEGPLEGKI
# T1 sequence (Q00653 whole entry, looked up): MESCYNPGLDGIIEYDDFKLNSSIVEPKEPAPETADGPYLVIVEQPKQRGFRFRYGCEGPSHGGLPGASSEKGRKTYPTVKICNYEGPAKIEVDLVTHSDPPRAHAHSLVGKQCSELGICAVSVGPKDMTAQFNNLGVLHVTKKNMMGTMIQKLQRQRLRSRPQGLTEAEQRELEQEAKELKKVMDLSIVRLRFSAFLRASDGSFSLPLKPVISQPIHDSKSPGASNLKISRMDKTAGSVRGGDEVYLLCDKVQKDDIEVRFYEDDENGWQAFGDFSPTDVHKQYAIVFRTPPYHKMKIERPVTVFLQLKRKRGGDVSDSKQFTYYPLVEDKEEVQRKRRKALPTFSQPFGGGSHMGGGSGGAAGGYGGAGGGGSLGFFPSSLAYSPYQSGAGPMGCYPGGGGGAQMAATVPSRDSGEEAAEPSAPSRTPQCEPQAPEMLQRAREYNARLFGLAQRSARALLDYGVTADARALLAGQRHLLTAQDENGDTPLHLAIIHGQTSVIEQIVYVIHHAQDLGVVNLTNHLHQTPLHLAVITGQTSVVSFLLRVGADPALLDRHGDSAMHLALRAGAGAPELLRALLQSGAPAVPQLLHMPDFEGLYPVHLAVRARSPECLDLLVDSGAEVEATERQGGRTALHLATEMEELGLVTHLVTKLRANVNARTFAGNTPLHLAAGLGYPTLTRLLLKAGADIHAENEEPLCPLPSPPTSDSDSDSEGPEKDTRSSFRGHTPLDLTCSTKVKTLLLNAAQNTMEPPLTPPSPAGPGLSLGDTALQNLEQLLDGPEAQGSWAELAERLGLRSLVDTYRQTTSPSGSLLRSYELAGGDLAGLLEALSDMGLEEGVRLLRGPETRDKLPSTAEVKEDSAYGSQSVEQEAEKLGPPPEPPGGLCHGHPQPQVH
# T1 sequence (Q04206 whole entry, looked up): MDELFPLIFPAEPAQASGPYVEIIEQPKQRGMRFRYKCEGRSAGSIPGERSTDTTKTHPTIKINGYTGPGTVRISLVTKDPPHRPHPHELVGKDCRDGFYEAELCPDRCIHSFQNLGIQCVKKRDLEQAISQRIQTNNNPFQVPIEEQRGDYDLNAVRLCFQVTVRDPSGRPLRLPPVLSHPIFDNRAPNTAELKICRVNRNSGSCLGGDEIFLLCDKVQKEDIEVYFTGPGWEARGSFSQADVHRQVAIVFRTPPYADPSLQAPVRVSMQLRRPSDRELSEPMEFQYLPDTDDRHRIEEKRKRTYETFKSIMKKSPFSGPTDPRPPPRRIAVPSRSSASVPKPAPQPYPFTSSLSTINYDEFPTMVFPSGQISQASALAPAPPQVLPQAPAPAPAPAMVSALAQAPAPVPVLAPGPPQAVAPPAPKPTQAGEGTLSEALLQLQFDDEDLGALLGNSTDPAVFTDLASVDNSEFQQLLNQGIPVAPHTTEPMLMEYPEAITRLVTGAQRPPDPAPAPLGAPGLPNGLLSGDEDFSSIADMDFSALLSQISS
# HEK293-A [2] = assay: Inhibition of TNF-alpha induced MAPK activation in HEK293-A cells assessed as decrease in phosphorylated JNK expression at 15 to 120 uM incubated for 15 mins by Western blot analysis; type: cell-based; details: Homo sapiens, dose 15-120 µM
# HT-29 [3] = assay: Antiinflammatory activity in human HT-29 cells assessed as downregulation of TNF-alpha-induced IL-8 mRNA expression incubated for 6 hrs by RT-PCR analysis; type: functional, cell-based; details: dose 15-20 µM
# HEK293-A [4] = assay: Inhibition of TNF-alpha induced MAPK activation in HEK293-A cells incubated for 15 mins by Western blot analysis; type: cell-based; details: Homo sapiens, dose 15-120 µM
# HT-29 [5] = assay: Antiinflammatory activity in human HT-29 cells assessed as downregulation of TNF-alpha-induced ICAM mRNA expression incubated for 6 hrs by RT-PCR analysis; type: functional, cell-based; details: dose 15-20 µM
# [6] = molecular target: Transcription factor p65 (Homo sapiens) (UniProt Q04206); assay: Inhibition of TNF-alpha induced NF-kappaB p65 nuclear translocation in human HaCaT cells at 120 uM incubated for 10 mins DAPI staining based fluorescence microscopic analysis; type: cell-based
# Sequence of Transcription factor p65 (Homo sapiens) (Q04206 whole entry): as the sequence (Q04206 whole entry, looked up) above
# [7] = molecular target: Transcription factor p65 (Homo sapiens) (UniProt Q04206); assay: Inhibition of TNF-alpha induced NF-kappaB p65 nuclear translocation in human HaCaT cells at 30 to 120 uM incubated for 10 mins DAPI staining based fluorescence microscopic analysis; type: cell-based; details: dose 30-120 µM
# HT-29 [8] = assay: Antiinflammatory activity in human HT-29 cells assessed as downregulation of TNF-alpha-induced IFN-gamma mRNA expression incubated for 6 hrs by RT-PCR analysis; type: functional, cell-based; details: dose 15-20 µM
# HEK293-A [9] = assay: Inhibition of TNF-alpha induced MAPK activation in HEK293-A cells assessed as decrease in phosphorylated ERK expression at 15 to 120 uM incubated for 15 mins by Western blot analysis; type: cell-based; details: Homo sapiens, dose 15-120 µM
# [10] = molecular target: T2, Tumor necrosis factor receptor superfamily member 1A (Homo sapiens, UniProt P19438); assay: Competitive Inhibition of TNF-alpha binding to human recombinant TNFR1 incubated for 1 hr by ELISA analysis
# T2 sequence (P19438 whole entry): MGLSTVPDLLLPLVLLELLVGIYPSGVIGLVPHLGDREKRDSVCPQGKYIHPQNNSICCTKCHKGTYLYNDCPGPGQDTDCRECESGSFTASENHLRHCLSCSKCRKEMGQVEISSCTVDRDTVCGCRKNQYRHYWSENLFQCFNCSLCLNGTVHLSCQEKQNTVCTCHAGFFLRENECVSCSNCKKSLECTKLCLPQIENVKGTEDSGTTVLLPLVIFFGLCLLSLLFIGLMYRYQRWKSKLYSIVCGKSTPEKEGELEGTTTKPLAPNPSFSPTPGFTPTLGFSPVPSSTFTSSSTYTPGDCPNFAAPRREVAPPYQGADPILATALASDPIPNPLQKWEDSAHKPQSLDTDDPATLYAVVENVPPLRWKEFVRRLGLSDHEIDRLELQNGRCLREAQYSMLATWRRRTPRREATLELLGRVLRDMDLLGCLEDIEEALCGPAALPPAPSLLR
# HEK293-A [11] = assay: Inhibition of TNF-alpha induced MAPK activation in HEK293-A cells assessed as decrease in phosphorylated p38 expression at 15 to 120 uM incubated for 15 mins by Western blot analysis; type: cell-based; details: Homo sapiens, dose 15-120 µM
# L929 [12] = assay: Cytotoxicity against TNF-alpha induced mouse L929 cells assessed as increase in cell survival pretreated for 12 hrs followed by TNF-alpha induction and measured after 18 to 20 hrs by MTT assay; type: toxicity, cell-based
# HT-29 [13] = assay: Antiinflammatory activity in human HT-29 cells assessed as downregulation of TNF-alpha-induced IL-1beta mRNA expression incubated for 6 hrs by RT-PCR analysis; type: functional, cell-based; details: dose 15-20 µM
# [14] = molecular target: T3, Tumor necrosis factor receptor superfamily member 1B (Homo sapiens, UniProt P20333); assay: Competitive Inhibition of TNF-alpha binding to human recombinant TNFR2 incubated for 1 hr by ELISA analysis
# T3 sequence (P20333 whole entry): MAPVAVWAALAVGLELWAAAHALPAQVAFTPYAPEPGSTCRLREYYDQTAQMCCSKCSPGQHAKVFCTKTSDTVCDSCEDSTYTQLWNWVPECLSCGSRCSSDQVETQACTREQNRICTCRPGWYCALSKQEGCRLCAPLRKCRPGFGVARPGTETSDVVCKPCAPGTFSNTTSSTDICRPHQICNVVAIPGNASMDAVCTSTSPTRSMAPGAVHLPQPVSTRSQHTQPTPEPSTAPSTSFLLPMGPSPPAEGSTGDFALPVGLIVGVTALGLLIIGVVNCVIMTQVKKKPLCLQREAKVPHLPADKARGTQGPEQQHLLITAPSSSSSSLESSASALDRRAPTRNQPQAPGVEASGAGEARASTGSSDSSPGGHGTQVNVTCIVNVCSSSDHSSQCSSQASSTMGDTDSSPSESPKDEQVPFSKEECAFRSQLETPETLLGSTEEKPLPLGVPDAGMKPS
# HEK293-A [15] = assay: Inhibition of TNF-alpha induced MAPK activation in HEK293-A cells at 15 to 120 uM by Western blot analysis; type: cell-based; details: Homo sapiens, dose 15-120 µM, time 15.0 min, TDE = time-dependent effect
# [16] = molecular target: T1, Nuclear factor NF-kappa-B complex (Homo sapiens); assay: Inhibition of TNF-alpha induced NF-kappaB activation in HEK293-A cells incubated for 15 mins by Western blot analysis; type: cell-based; details: dose 15-120 µM
# [17] = molecular target: T1, Nuclear factor NF-kappa-B complex (Homo sapiens); assay: Inhibition of TNF-alpha induced NF-kappaB activation in HEK293-A cells at 15 to 120 uM by Western blot analysis; type: cell-based; details: dose 15-120 µM, time 15.0 min, TDE = time-dependent effect
# L929 [18] = assay: Cytotoxicity against TNF-alpha induced mouse L929 cells assessed as increase in cell survival pretreated for 12 hrs followed by TNF-alpha induction and measured after 20 hrs by MTT assay; type: toxicity, cell-based; details: l929, 32 h
Molecule,inhibition [1],inhibition (HEK293-A [2]),Activity (HT-29 [3]),inhibition (HEK293-A [4]),Activity (HT-29 [5]),inhibition [6],inhibition [7],Activity (HT-29 [8]),inhibition (HEK293-A [9]),EC50 [10] [µM],inhibition (HEK293-A [11]),IC50 (L929 [12]) [µM],Activity (HT-29 [13]),EC50 [14] [µM],inhibition (HEK293-A [15]),inhibition [16],inhibition [17],Activity (L929 [18]) [%]
H-DEFHLELHLYQSW-OH,Active,Active,Dose-Dependent Effect,Dose-Dependent Effect,Dose-Dependent Effect,Active,Active,Dose-Dependent Effect,Active,7.25,Active,15.4,Dose-Dependent Effect,17,Tde,Dose-Dependent Effect,Tde,
"Cc1c2oc3c(C)ccc(C(=O)N[C@@H]4C(=O)N[C@H](C(C)C)C(=O)N5CCC[C@H]5C(=O)N(C)CC(=O)N(C)[C@@H](C(C)C)C(=O)O[C@@H]4C)c3nc-2c(C(=O)N[C@@H]2C(=O)N[C@H](C(C)C)C(=O)N3CCC[C@H]3C(=O)N(C)CC(=O)N(C)[C@@H](C(C)C)C(=O)O[C@@H]2C)c(N)c1=O [DACTINOMYCIN] (I: T[dV]P[Sar][NMeV] / II: T[dV]P[Sar][NMeV]; ester I:1-I:C, II:1-II:C; linker I:N-II:N via Actinocin(9to1))",,,,,,,,,,,,,,,,,,70
